According to patent US20110257206A1, “Combinations of Therapeutic Agents for Treating Cancer” (priority 2006, published 2011):

Experiments:
A549 = experiment: Combination dose-matrix cell viability assay (CellTiter-Blue / alamar blue), synergy versus Loewe additivity, A549; type: cell-based; conditions: combination with Epothilone B; A549 cells; 72 hours; volume between measured and Loewe additive response surfaces; positive = synergistic
Protocol: The following Examples illustrate the combinations with epothilone B that show a syngeristic effect. All combinations were tested in three (3) distinct cell lines as part of this collaboration: A549, a model of non-small cell lung carcinoma; SKOV-3, a model of ovarian cancer; and SKMEL-28, a model of malignant melanoma.
Cells were cultured in T-175 flasks in complete medium (RPMI-1640, 10% FBS, 1% Penn/Strep) at 37° C. and 5% CO2. Cells were removed from the flask by brief treatment with 0.25% trypsin. Trypsin was inactivated with media and cell count was adjusted appropriately. Cells were then seeded into 384-well microtiter plates (35 μL) at 1500 (A549) or 3,000 (SKOV-3, SKMEL-28) cells/well using a multi-drop 16-24 hours prior to compound addition for general screening. […]
A solution of 5% CellTiter-Blue (Promega) viability dye in complete medium was dispensed to assay plates using a multi-drop or 384-well pipettor. […] Plates were allowed to cool to room temperature for one hour before reading fluorescence intensity at 590 nm after excitation at 540 nm in a Wallac Victor-V plate reader.
The measure of effect was the inhibition of cell viability using an alamar blue viability assay relative to the untreated level (vehicle alone). For untreated and treated levels U and T, a fractional inhibition I=1−T/U was calculated. […]

SKMEL28 = experiment: Combination dose-matrix cell viability assay (CellTiter-Blue / alamar blue), synergy versus Loewe additivity, SKMEL-28; type: cell-based; conditions: combination with Epothilone B; SKMEL28 cells; 72 hours; volume between measured and Loewe additive response surfaces; positive = synergistic
From the text: The inhibition ranges from 0% at the untreated level to 100% when T=0.
This effectively calculates a volume between the measured and Loewe additive response surfaces, weighted towards high inhibition and corrected for varying dilution factors.

For `O=C1C(SCCO)=C(SCCO)C(=O)c2ccccc21` [1,4-Naphthalenedione, 2,3-bis[(2-hydroxyethyl)thio]-(9CI)], the “Synergy Score” value (A549) was 1.233.
With `Nc1nc(Cl)nc2c1ncn2C1CC(O)C(CO)O1` (stereo not drawn) [5-(6-amino-2-chloro-purin-9-yl)-2-(hydroxymethyl)oxolan-3-ol] the “Synergy Score” value (SKMEL28) was 0.999.
In the case of “Butanedinitrile, bis[amino[(2-aminophenyl)thio]methylene]- (9CI)”, the “Synergy Score” value (A549) is reported as 1.199.
